Measured values from PubChem BioAssay AID330 (DTP/NCI, 2004).
Values joined by “and” are separate entries in the source; they are usually repeats but may differ in a detail not shown here. Identical values can stand only once. Inconclusive results and toxic doses are left out.

Tested on: P388 leukemia ip, CD2F1 mice, survival T/C
Assay: NCI In Vivo Anticancer Drug Screen. Data for tumor model P388 Leukemia (intraperitoneal) in CD2F1 (CDF1) mice
Conditions: endpoint: median survival time, higher = longer survival
Outline: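 Mice carrying the transplanted tumor received test compound or vehicle. Survival was recorded in each group, and the value is the treated-group measurement divided by that of the vehicle-treated control group.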

[1] = dose: 12.5 mg/kg/injection, schedule: Q01DX009 (ip), vehicle: saline
[2] = dose: 25.0 mg/kg/injection, schedule: Q01DX009 (ip), vehicle: saline
[3] = dose: 50.0 mg/kg/injection, schedule: Q01DX009 (ip), vehicle: saline
[4] = dose: 200.0 mg/kg/injection, schedule: Q01DX009 (ip), vehicle: saline
[5] = dose: 50.0 mg/kg/injection, schedule: Q01DX009 (ip), vehicle: saline sonified
[6] = dose: 100.0 mg/kg/injection, schedule: Q04DX003 (ip), vehicle: saline with Tween-80
[7] = dose: 200.0 mg/kg/injection, schedule: Q04DX003 (ip), vehicle: saline with Tween-80
[8] = dose: 400.0 mg/kg/injection, schedule: Q04DX003 (ip), vehicle: saline with Tween-80
[9] = dose: 25.0 mg/kg/injection, schedule: Q01DX009 (ip), vehicle: saline with Tween-80
[10] = dose: 50.0 mg/kg/injection, schedule: Q01DX009 (ip), vehicle: saline with Tween-80
[11] = dose: 100.0 mg/kg/injection, schedule: Q01DX009 (ip), vehicle: saline with Tween-80
[12] = dose: 60.0 mg/kg/injection, schedule: Q01DX005 (ip), vehicle: saline with Tween-80
[13] = dose: 120.0 mg/kg/injection, schedule: Q01DX005 (ip), vehicle: saline with Tween-80

## CCCCCCCCCCCCCCCCS(=O)(=O)N/N=c1\cc(-c2ccccc2Cl)c2ccccc2n1C
[1]
  T/C: 92 % of control
[2]
  T/C: 90 % of control
[3]
  T/C: 89 % of control and 90 % of control
[4]
  T/C: 89 % of control

## O=S(=O)(O)O.[Ga]
dose: 33.0 mg/kg/injection, schedule: Q04DX003 (ip), vehicle: saline sonified
  T/C: 95 % of control
[5]
  T/C: 100 % of control
dose: 50.0 mg/kg/injection, schedule: Q04DX003 (ip), vehicle: saline sonified
  T/C: 110 % of control

## O=C(/C=C/c1ccc(O)cc1)c1ccccc1
dose: 50.0 mg/kg/injection, schedule: Q04DX003 (ip), vehicle: saline with Tween-80
  T/C: 105 % of control and 94 % of control
[6]
  T/C: 98 % of control and 105 % of control
[7]
  T/C: 103 % of control and 105 % of control
[8]
  T/C: 105 % of control

## COc1cccc2c1C(=O)c1c(O)c3c(c(O)c1C2=O)C[C@@](O)(C(=O)CO)C[C@@H]3OC1CC(N2CCOCC2C#N)C(O)C(C)O1 (some centres not stated)
dose: 9.38 micrograms/kg/injection, schedule: Q04DX003 (ip), vehicle: saline with Tween-80
  T/C: 191 % of control and 198 % of control
dose: 9.38 micrograms/kg/injection, schedule: Q04DX003 (ip), vehicle: water
  T/C: 105 % of control
dose: 15.0 micrograms/kg/injection, schedule: Q04DX003 (iv), vehicle: saline + alcohol
  T/C: 180 % of control
dose: 18.75 micrograms/kg/injection, schedule: Q04DX003 (ip), vehicle: saline with Tween-80
  T/C: 252 % of control and 260 % of control
dose: 18.75 micrograms/kg/injection, schedule: Q04DX003 (ip), vehicle: water
  T/C: 107 % of control
dose: 22.0 micrograms/kg/injection, schedule: Q04DX003 (iv), vehicle: saline + alcohol
  T/C: 180 % of control
dose: 37.5 micrograms/kg/injection, schedule: Q04DX003 (ip), vehicle: saline with Tween-80
  T/C: 110 % of control
dose: 75.0 micrograms/kg/injection, schedule: Q04DX003 (ip), vehicle: water
  T/C: 178 % of control and 196 % of control
dose: 150.0 micrograms/kg/injection, schedule: Q04DX003 (ip), vehicle: water
  T/C: 111 % of control
dose: 300.0 micrograms/kg/injection, schedule: Q04DX003 (ip), vehicle: water
  T/C: 89 % of control

## C1CN1Sc1nc(SN2CC2)nc(SN2CC2)n1
dose: 60.0 mg/kg/injection, schedule: Q01DX005 (ip), vehicle: Klucel (hydroxypropylcellulose) (HPC)
  T/C: 100 % of control
dose: 120.0 mg/kg/injection, schedule: Q01DX005 (ip), vehicle: Klucel (hydroxypropylcellulose) (HPC)
  T/C: 97 % of control

## CN(C)[C@@H]1C(=O)C(C(=O)NCNCCCC(=O)O)=C(O)[C@@]2(O)C(=O)C3=C(O)c4c(O)cccc4[C@@](C)(O)[C@H]3C[C@@H]12
[6]
  T/C: 104 % of control
[7]
  T/C: 100 % of control
[8]
  T/C: 95 % of control

## CCC(C(=O)NNC(=O)c1cc(OC)c(OC)c(OC)c1)c1ccccc1 (configuration not stated)
dose: 12.5 mg/kg/injection, schedule: Q01DX009 (ip), vehicle: saline with Tween-80
  T/C: 105 % of control
[9]
  T/C: 97 % of control
[10]
  T/C: 98 % of control
[11]
  T/C: 98 % of control

## CCN(CC)c1ccc2cc(S(=O)(=O)c3ccccc3)c(=O)oc2c1
[12]
  T/C: 91 % of control
[13]
  T/C: 86 % of control

## COc1ccc(Cc2cc(O)c(OC)cc2O)cc1
dose: 0.32 mg/kg/injection, schedule: Q01DX009 (ip), vehicle: saline with Tween-80
  T/C: 104 % of control
dose: 0.63 mg/kg/injection, schedule: Q01DX009 (ip), vehicle: saline with Tween-80
  T/C: 107 % of control
dose: 1.25 mg/kg/injection, schedule: Q01DX009 (ip), vehicle: saline with Tween-80
  T/C: 104 % of control
dose: 2.5 mg/kg/injection, schedule: Q01DX009 (ip), vehicle: saline with Tween-80
  T/C: 111 % of control
dose: 5.0 mg/kg/injection, schedule: Q01DX009 (ip), vehicle: saline with Tween-80
  T/C: 100 % of control and 108 % of control
dose: 10.0 mg/kg/injection, schedule: Q01DX009 (ip), vehicle: saline with Tween-80
  T/C: 106 % of control

## c1ccc2c(c1)Sc1ccccc1N2Cc1cnc[nH]1
dose: 50.0 mg/kg/injection, schedule: Q01DX009 (ip), vehicle: Klucel (hydroxypropylcellulose) (HPC)
  T/C: 101 % of control
dose: 50.0 mg/kg/injection, schedule: Q01DX009 (ip), vehicle: alcohol
  T/C: 114 % of control
dose: 100.0 mg/kg/injection, schedule: Q01DX009 (ip), vehicle: Klucel (hydroxypropylcellulose) (HPC)
  T/C: 109 % of control
dose: 100.0 mg/kg/injection, schedule: Q01DX009 (ip), vehicle: alcohol
  T/C: 114 % of control
dose: 200.0 mg/kg/injection, schedule: Q01DX009 (ip), vehicle: Klucel (hydroxypropylcellulose) (HPC)
  T/C: 118 % of control

## CCC(SC)C(=O)N(C)c1ccccc1 (configuration not stated)
dose: 6.25 mg/kg/injection, schedule: Q01DX009 (ip), vehicle: saline
  T/C: 104 % of control
[1]
  T/C: 107 % of control
[9]
  T/C: 90 % of control
[2]
  T/C: 114 % of control
[11]
  T/C: 109 % of control

## CCCCCNc1ccc(NCCCCC)c2c1C(=O)c1ccccc1C2=O
[3]
  T/C: 98 % of control
dose: 100.0 mg/kg/injection, schedule: Q01DX009 (ip), vehicle: saline
  T/C: 99 % of control
[4]
  T/C: 89 % of control

## CC1=CC[C@@H](Br)C(C)(C)[C@]12CC[C@]1(C)O[C@@H]1C2
dose: 12.5 mg/kg/injection, schedule: Q01DX005 (ip), vehicle: saline + alcohol
  T/C: 110 % of control
dose: 25.0 mg/kg/injection, schedule: Q01DX005 (ip), vehicle: saline + alcohol
  T/C: 110 % of control
dose: 50.0 mg/kg/injection, schedule: Q01DX005 (ip), vehicle: saline + alcohol
  T/C: 105 % of control
dose: 100.0 mg/kg/injection, schedule: Q01DX005 (ip), vehicle: saline + alcohol
  T/C: 105 % of control

## CCCCCCCCCCCCCC1C=CCC1 (configuration not stated)
dose: 100.0 mg/kg/injection, schedule: Q01DX001 (ip), vehicle: saline
  T/C: 101 % of control
dose: 200.0 mg/kg/injection, schedule: Q01DX001 (ip), vehicle: saline
  T/C: 99 % of control
dose: 400.0 mg/kg/injection, schedule: Q01DX001 (ip), vehicle: saline
  T/C: 100 % of control

## N#CC1(NC(=O)C(Cl)Cl)c2ccccc2-c2ccccc21
[12]
  T/C: 100 % of control
[13]
  T/C: 93 % of control

## CC(C)NC(=S)S
dose: 25.0 mg/kg/injection, schedule: Q01DX009 (ip), vehicle: saline sonified
  T/C: 104 % of control
[5]
  T/C: 100 % of control
dose: 100.0 mg/kg/injection, schedule: Q01DX009 (ip), vehicle: saline sonified
  T/C: 109 % of control

## Cc1cccc(C)c1NC(=O)C(Cl)(Cl)Sc1ccc(Cl)cc1Cl
[10]
  T/C: 100 % of control
[11]
  T/C: 104 % of control
dose: 200.0 mg/kg/injection, schedule: Q01DX009 (ip), vehicle: saline with Tween-80
  T/C: 109 % of control

## O=c1[nH]cnc2c1ccn2C1OC(CO)C(O)C1O (configuration not stated)
dose: 3.0 mg/kg/injection, schedule: Q01DX009 (ip), vehicle: saline with Tween-80
  T/C: 100 % of control
dose: 6.0 mg/kg/injection, schedule: Q01DX009 (ip), vehicle: saline with Tween-80
  T/C: 100 % of control
dose: 12.0 mg/kg/injection, schedule: Q01DX009 (ip), vehicle: saline with Tween-80
  T/C: 104 % of control

## CCN(CC)CCCC(C)NCCCN (configuration not stated)
dose: 100.0 mg/kg/injection, schedule: Q04DX003 (ip), vehicle: saline
  T/C: 100 % of control
dose: 200.0 mg/kg/injection, schedule: Q04DX003 (ip), vehicle: saline
  T/C: 90 % of control

## Nc1nc2c(=O)[nH]c(=O)[nH]c2n1C1OC(CO)C(O)C1O (configuration not stated)
[12]
  T/C: 117 % of control
